Measurements: patent US11419869B2, “Dosage forms and regimens for amino acid compounds” (Pliant Therapeutics, Inc., priority 2019, dated 2022)

Biological target: recombinant human integrin αvβ6 (Homo sapiens (Human), UniProt P06756+P18564)
Experiment: Solid Phase Integrin αvβ6 Binding Assay (Examples B1, B2)
Conditions: TGFβ1 LAP ligand, values given in four ranges, read-out: αvβ6 Inhibition IC50 (nM)-range
Method in brief: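 Plates coated with recombinant human αvβ6 (2 μg/mL) compete compound against recombinant TGFβ1 LAP (0.67 μg/mL) in TBS binding buffer with 0.5 mM MnCl2, 2 h at 25 °C. Bound LAP detected with biotin-anti-hLAP and peroxidase-streptavidin; IC50 by four-parameter logistic regression.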

recombinant human integrin αvβ6, sequence (P06756 31-992): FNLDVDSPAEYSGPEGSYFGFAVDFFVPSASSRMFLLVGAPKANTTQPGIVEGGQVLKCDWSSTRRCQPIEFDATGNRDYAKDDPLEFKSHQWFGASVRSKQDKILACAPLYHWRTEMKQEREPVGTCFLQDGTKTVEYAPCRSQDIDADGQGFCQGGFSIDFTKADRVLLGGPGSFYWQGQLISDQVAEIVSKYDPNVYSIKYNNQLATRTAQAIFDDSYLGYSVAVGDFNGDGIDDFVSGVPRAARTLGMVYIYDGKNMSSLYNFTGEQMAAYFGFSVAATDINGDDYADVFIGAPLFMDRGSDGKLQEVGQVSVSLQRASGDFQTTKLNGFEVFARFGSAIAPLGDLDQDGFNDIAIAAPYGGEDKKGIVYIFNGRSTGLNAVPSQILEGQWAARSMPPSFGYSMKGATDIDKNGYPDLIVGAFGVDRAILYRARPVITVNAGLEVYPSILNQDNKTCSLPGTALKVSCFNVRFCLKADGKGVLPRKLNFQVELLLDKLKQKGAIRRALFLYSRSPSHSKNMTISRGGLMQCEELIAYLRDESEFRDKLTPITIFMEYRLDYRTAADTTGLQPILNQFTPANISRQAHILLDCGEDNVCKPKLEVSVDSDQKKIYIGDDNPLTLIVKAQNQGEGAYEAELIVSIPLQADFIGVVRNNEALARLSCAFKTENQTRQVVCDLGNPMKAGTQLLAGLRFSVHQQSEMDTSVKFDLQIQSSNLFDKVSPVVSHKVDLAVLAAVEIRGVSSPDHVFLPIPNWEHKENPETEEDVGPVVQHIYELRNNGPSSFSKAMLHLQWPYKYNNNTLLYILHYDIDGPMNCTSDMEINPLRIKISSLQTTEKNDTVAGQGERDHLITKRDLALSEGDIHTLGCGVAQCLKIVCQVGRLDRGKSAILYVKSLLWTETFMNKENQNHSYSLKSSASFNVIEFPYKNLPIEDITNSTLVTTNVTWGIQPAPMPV
recombinant human integrin αvβ6, sequence (P18564 22-707): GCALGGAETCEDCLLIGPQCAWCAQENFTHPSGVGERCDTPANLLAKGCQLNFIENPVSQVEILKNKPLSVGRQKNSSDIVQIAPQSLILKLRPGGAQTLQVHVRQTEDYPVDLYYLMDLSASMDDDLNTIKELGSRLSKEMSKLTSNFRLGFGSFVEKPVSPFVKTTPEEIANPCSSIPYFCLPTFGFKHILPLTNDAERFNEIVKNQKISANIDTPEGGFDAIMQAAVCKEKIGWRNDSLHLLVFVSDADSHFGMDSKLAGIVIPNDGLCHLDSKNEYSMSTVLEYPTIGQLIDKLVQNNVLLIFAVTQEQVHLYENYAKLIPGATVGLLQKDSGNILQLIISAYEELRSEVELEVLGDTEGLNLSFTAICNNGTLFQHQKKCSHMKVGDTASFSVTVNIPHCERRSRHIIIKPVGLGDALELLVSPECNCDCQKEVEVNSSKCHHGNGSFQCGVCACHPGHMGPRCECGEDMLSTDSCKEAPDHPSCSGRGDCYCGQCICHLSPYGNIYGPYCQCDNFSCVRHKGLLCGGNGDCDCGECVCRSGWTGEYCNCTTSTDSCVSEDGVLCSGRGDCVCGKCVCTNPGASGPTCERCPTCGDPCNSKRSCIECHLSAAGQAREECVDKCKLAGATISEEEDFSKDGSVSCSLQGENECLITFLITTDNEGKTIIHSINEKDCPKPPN

IC50 [nM]	SMILES
< 50	O=C(O)[C@H](CCN(CCCCc1ccc2c(n1)NCCC2)CCOc1ccccc1)Nc1ncc(Br)cn1 [Compound 83, (S)-2-((5-bromopyrimidin-2-yl)amino)-4-((2-phenoxyethyl) (4-(5,6,7,8-tetrahydro-1,8-naphthyridin-2-yl)butyl)amino) butanoic acid]
> 1000	Cn1ncc2c(N[C@@H](CCN(CCCCc3ccc4c(n3)NCCC4)CC(F)F)C(=O)O)ncnc21 [Compound 88, (S)-4-((2,2-difluoroethyl) (4-(5,6,7,8-tetrahydro-1,8-naphthyridin-2-yl)butyl)amino)-2-((1-methyl-1H-pyrazolo[3,4-d]pyrimidin-4-yl)amino) butanoic acid]
< 50	O=C(O)[C@H](CCN(CCCCc1ccc2c(n1)NCCC2)CCOc1ccccc1)Nc1ncc(C(F)(F)F)cn1 [Compound 89, (S)-4-((2-phenoxyethyl) (4-(5,6,7,8-tetrahydro-1,8-naphthyridin-2-yl)butyl)amino)-2-((5-(trifluoromethyl)pyrimidin-2-yl)amino) butanoic acid]
< 50	O=C(O)[C@H](CCN(CCCCc1ccc2c(n1)NCCC2)CCOc1ccccc1)Nc1ncnc2[nH]ncc12 [Compound 90, (S)-2-((1H-pyrazolo[3,4-d]pyrimidin-4-yl)amino)-4-((2-phenoxyethyl) (4-(5,6,7,8-tetrahydro-1,8-naphthyridin-2-yl)butyl)amino) butanoic acid]
< 50	O=C(O)[C@H](CCN(CCCCc1ccc2c(n1)NCCC2)CCOc1ccccc1)Nc1cc(-n2cccn2)ncn1 [Compound 91, (S)-2-((6-(1H-pyrazol-1-yl)pyrimidin-4-yl)amino)-4-((2-phenoxyethyl) (4-(5,6,7,8-tetrahydro-1,8-naphthyridin-2-yl)butyl)amino) butanoic acid]
< 50	O=C(O)[C@H](CCN(CCCCc1ccc2c(n1)NCCC2)CCOc1ccccc1)Nc1ccnc(C(F)(F)F)n1 [Compound 92, (S)-4-((2-phenoxyethyl) (4-(5,6,7,8-tetrahydro-1,8-naphthyridin-2-yl)butyl)amino)-2-((2-(trifluoromethyl)pyrimidin-4-yl)amino) butanoic acid]
< 50	O=C(O)[C@H](CCN(CCCCc1ccc2c(n1)NCCC2)CCOc1ccccc1)Nc1cc(-c2ccccc2)ncn1 [Compound 93, (S)-4-((2-phenoxyethyl) (4-(5,6,7,8-tetrahydro-1,8-naphthyridin-2-yl)butyl)amino)-2-((6-phenylpyrimidin-4-yl)amino) butanoic acid]
< 50	O=C(O)[C@H](CCN(CCCCc1ccc2c(n1)NCCC2)CCOc1ccccc1)Nc1nc(-c2cccnc2)nc2ccccc12 [Compound 94, (S)-4-((2-phenoxyethyl) (4-(5,6,7,8-tetrahydro-1,8-naphthyridin-2-yl)butyl)amino)-2-((2-(pyridin-3-yl)quinazolin-4-yl)amino) butanoic acid]
> 1000	O=C(O)[C@H](CCN(CCCCc1ccc2c(n1)NCCC2)CC(F)F)Nc1ncc(C(F)(F)F)cn1 [Compound 95, (S)-4-((2,2-difluoroethyl) (4-(5,6,7,8-tetrahydro-1,8-naphthyridin-2-yl)butyl)amino)-2-((5-(trifluoromethyl)pyrimidin-2-yl)amino) butanoic acid]
> 1000	O=C(O)[C@H](CCN(CCCCc1ccc2c(n1)NCCC2)CC(F)F)Nc1ncc(Br)cn1 [Compound 96, (S)-2-((5-bromopyrimidin-2-yl)amino)-4-((2,2-difluoroethyl) (4-(5,6,7,8-tetrahydro-1,8-naphthyridin-2-yl)butyl)amino) butanoic acid]
> 1000	O=C(O)[C@H](CCN(CCCCc1ccc2c(n1)NCCC2)CC(F)F)Nc1ccnc(C(F)(F)F)n1 [Compound 97, (S)-4-((2,2-difluoroethyl) (4-(5,6,7,8-tetrahydro-1,8-naphthyridin-2-yl)butyl)amino)-2-((2-(trifluoromethyl)pyrimidin-4-yl)amino) butanoic acid]
> 1000	O=C(O)[C@H](CCN(CCCCc1ccc2c(n1)NCCC2)CC(F)F)Nc1cc(-n2cccn2)ncn1 [Compound 98, (S)-2-((6-(1H-pyrazol-1-yl)pyrimidin-4-yl)amino)-4-((2,2-difluoroethyl) (4-(5,6,7,8-tetrahydro-1,8-naphthyridin-2-yl)butyl)amino) butanoic acid]
< 50	CO[C@H](C)CN(CCCCc1ccc2c(n1)NCCC2)CC[C@H](Nc1nc(-c2cccnc2)nc2ccccc12)C(=O)O [Compound 100, (S)-4-(((R)-2-methoxypropyl) (4-(5,6,7,8-tetrahydro-1,8-naphthyridin-2-yl)butyl)amino)-2-((2-(pyridin-3-yl)quinazolin-4-yl)amino) butanoic acid]
> 1000	CS(=O)(=O)CCN(CCCCc1ccc2c(n1)NCCC2)CC[C@H](Nc1ncc(C(F)(F)F)cn1)C(=O)O [Compound 102, (S)-4-((2-(methylsulfonyl)ethyl) (4-(5,6,7,8-tetrahydro-1,8-naphthyridin-2-yl)butyl)amino)-2-((5-(trifluoromethyl)pyrimidin-2-yl)amino) butanoic acid]
> 1000	CS(=O)(=O)CCN(CCCCc1ccc2c(n1)NCCC2)CC[C@H](Nc1ncc(Br)cn1)C(=O)O [Compound 103, (S)-2-((5-bromopyrimidin-2-yl)amino)-4-((2-(methylsulfonyl)ethyl) (4-(5,6,7,8-tetrahydro-1,8-naphthyridin-2-yl)butyl)amino) butanoic acid]
> 1000	CS(=O)(=O)CCN(CCCCc1ccc2c(n1)NCCC2)CC[C@H](Nc1ccnc(C(F)(F)F)n1)C(=O)O [Compound 104, (S)-4-((2-(methylsulfonyl)ethyl) (4-(5,6,7,8-tetrahydro-1,8-naphthyridin-2-yl)butyl)amino)-2-((2-(trifluoromethyl)pyrimidin-4-yl)amino) butanoic acid]
< 50	COC[C@@H](F)CN(CCCCc1ccc2c(n1)NCCC2)CC[C@H](Nc1ncnc2c1cnn2C)C(=O)O [Compound 105, (S)-4-(((S)-2-fluoro-3-methoxypropyl) (4-(5,6,7,8-tetrahydro-1,8-naphthyridin-2-yl)butyl)amino)-2-((1-methyl-1H-pyrazolo[3,4-d]pyrimidin-4-yl)amino) butanoic acid]
< 50	CO[C@H](C)CN(CCCCc1ccc2c(n1)NCCC2)CC[C@H](Nc1ccncn1)C(=O)O [Compound 106, (S)-4-(((R)-2-methoxypropyl) (4-(5,6,7,8-tetrahydro-1,8-naphthyridin-2-yl)butyl)amino)-2-(pyrimidin-4-ylamino) butanoic acid]
250 to 1000	CS(=O)(=O)CCN(CCCCc1ccc2c(n1)NCCC2)CC[C@H](Nc1nc(-c2cccnc2)nc2ccccc12)C(=O)O [Compound 107, (S)-4-((2-(methylsufonyl)ethyl) (4-(5,6,7,8-tetrahydro-1,8-naphthyridin-2-yl)butyl)amino)-2-((2-(pyridin-3-yl)quinazolin-4-yl)amino) butanoic acid]
> 1000	COC[C@@H](F)CN(CCCCc1ccc2c(n1)NCCC2)CC[C@H](Nc1cc(-n2cccn2)ncn1)C(=O)O [Compound 108, (S)-2-((6-(1H-pyrazol-1-yl)pyrimidin-4-yl)amino)-4-(((S)-2-fluoro-3-methoxypropyl) (4-(5,6,7,8-tetrahydro-1,8-naphthyridin-2-yl)butyl)amino) butanoic acid]
< 50	COC[C@@H](F)CN(CCCCc1ccc2c(n1)NCCC2)CC[C@H](Nc1nc(-c2cccnc2)nc2ccccc12)C(=O)O [Compound 109, (S)-4-(((S)-2-fluoro-3-methoxypropyl) (4-(5,6,7,8-tetrahydro-1,8-naphthyridin-2-yl)butyl)amino)-2-((2-(pyridin-3-yl)quinazolin-4-yl)amino) butanoic acid]
< 50	COC[C@@H](F)CN(CCCCc1ccc2c(n1)NCCC2)CC[C@H](Nc1ncncc1-c1ccccc1)C(=O)O [Compound 110, (S)-4-(((S)-2-fluoro-3-methoxypropyl) (4-(5,6,7,8-tetrahydro-1,8-naphthyridin-2-yl)butyl)amino)-2-((5-phenylpyrimidin-4-yl)amino) butanoic acid]
< 50	N#Cc1cnc(N[C@@H](CCN(CCCCc2ccc3c(n2)NCCC3)CCOc2ccccc2)C(=O)O)nc1 [Compound 111, (S)-2-((5-cyanopyrimidin-2-yl)amino)-4-((2-phenoxyethyl) (4-(5,6,7,8-tetrahydro-1,8-naphthyridin-2-yl)butyl)amino) butanoic acid]
< 50	O=C(O)[C@H](CCN(CCCCc1ccc2c(n1)NCCC2)C1CC1)Nc1ncc(C(F)(F)F)cn1 [Compound 114, (S)-4-(cyclopropyl(4-(5,6,7,8-tetrahydro-1,8-naphthyridin-2-yl)butyl)amino)-2-((5-(trifluoromethyl)pyrimidin-2-yl)amino) butanoic acid]
< 50	O=C(O)[C@H](CCN(CCCCc1ccc2c(n1)NCCC2)CCOc1ccccc1)Nc1ncc(C2CC2)cn1 [Compound 117, (S)-2-((5-cyclopropylpyrimidin-2-yl)amino)-4-((2-phenoxyethyl) (4-(5,6,7,8-tetrahydro-1,8-naphthyridin-2-yl)butyl)amino) butanoic acid]
> 1000	N#Cc1cnc(N[C@@H](CCN(CCCCc2ccc3c(n2)NCCC3)CC(F)F)C(=O)O)nc1 [Compound 118, (S)-2-((5-cyanopyrimidin-2-yl)amino)-4-((2,2-difluoroethyl) (4-(5,6,7,8-tetrahydro-1,8-naphthyridin-2-yl)butyl)amino) butanoic acid]
> 1000	O=C(O)[C@H](CCN(CCCCc1ccc2c(n1)NCCC2)CC(F)F)Nc1ncncc1-c1ccccc1 [Compound 119, (S)-4-((2,2-difluoroethyl) (4-(5,6,7,8-tetrahydro-1,8-naphthyridin-2-yl)butyl)amino)-2-((5-phenylpyrimidin-4-yl)amino) butanoic acid]
